{"source": "patent US11197856B2", "about": "“Bicyclic compounds and methods for their use in treating autism” (priority 2013, dated 2021)", "key": {"[1]": {"test_system": "fmr1-knockout animals", "assay": "Sociability: bouts of sniffing a novel mouse", "assay_type": "in vivo, mice", "details": "p<0.001", "procedure": "Social recognition and social memory in mice were evaluated by the amount of time spent sniffing a novel mouse upon repeated exposures, to induce familiarity, and reinstatement of high levels of sniffing when a novel stimulus animal is introduced. We measured the number of bouts of sniffing in each of the groups of animals."}, "[2]": {"test_system": "NMDA NR1 subunit", "assay": "NMDA receptor-1 immunohistochemical staining of hippocampus", "assay_type": "in vivo, male Wistar rats", "details": "CA1 and CA3; post-treatment", "procedure": "Aged rats (male Wistar rats, 18-20 months old) were divided into four groups: two vehicle-treated (groups 1 and 3) and two G-2-AllylP treated (groups 2 and 4) (all groups n=6-8). Cyclic G-2-AllylP was synthesised by the Department of Medicinal Chemistry and dissolved in normal saline before the treatment. On day 1 a single dose of cyclic G-2-AllylP was given centrally (20 ng/animal, i.c.v.) to the animals in groups 2 and 4; saline was administered to groups 1 and 3. The memory tests using Novel Object Recognition Test started either on day 3 (groups 1 and 2) or 24 (groups 3 and 4) after the treatment. On the completion of the NORT, the rats were killed with an overdose of sodium pentobarbital and were perfused transcardially with normal saline followed by 10% formalin. Tissues collected at day 7 in groups 1 and 2, and at day 28 from groups 3 and 4. The brains were kept in the same fixative for a minimum of 2 days before being processed using a standard paraffin embedding procedure. Briefly, small blocks (10×10×3 mm) of tissue were fixed for up to 24 hrs. The blocks were then infiltrated and embedded with paraffin and cut in ribbons and mounted on slides. Slides were then stored until immunostaining was commenced. Synaptogenesis in brain tissue was examined using immunohistochemical staining. […]"}, "[3]": {"test_system": "fmr1-knockout mice and wild-type littermates", "assay": "Open Field (OF) test", "assay_type": "in vivo", "details": "for exploratory behavior (number of squares entered): fmr1-knockout animals; for number of squares entered: wild-type animals", "procedure": "The fmr1-knockout 2 mice (C57BL/6 background) were housed in groups of the same genotype in a temperature and humidity controlled room with a 12-h light-dark cycle (lights on 7 am to […]). Testing was conducted during the light phase. Food and water were available ad libitum. Testing was conducted on fmr1-knockout mice and their wild-type littermates. Experiments were conducted in line with the requirements of the UK Animals (Scientific Procedures) Act, 1986.\nThe Open Field (OF) test is a combined test that is used to determine anxiety/hyperactivity, and for habituation to a novel environment, one of the most elementary forms of learning, in which decreased exploration as a function of repeated exposure to the same environment is taken as an index of memory. This is normally studied in two sessions of exposure to the open field, a 10-min and a 24 hr habituation session.\nThe device used for this study is a grey PVC enclosed arena 50×30 cm divided into 10 cm squares. Mice are brought to the experimental room 5-20 min before testing. A mouse is placed into a corner square facing the corner and observed for 3 min. The number of squares entered (whole body) and rears (both front paws off the ground, but not as part of grooming) are counted. The latency to the first rear is also noted. The movement of the mouse around the field was recorded with a video tracking device for 300s (vNT4.0, Viewpoint). The latency for the mouse to enter the brightest, central part of the field total time spent in this central region, and total activity (in terms of path length in centimeters), were recorded.\nThe open field (OF) test is a test used to characterize explorative behavior, anxiety, and or hyperactivity in animals habituated to daily handling under novel and familiar conditions. During exposure to the open field mice will habituate to the environment and thus explore less, decreasing the amount movement they show over time.\nIn the present experiment, we recorded movement and rearing during an initial exposure (T1), during a second exposure after 10 minutes (T2) and during a third exposure after 24 hours (T3). Failures to reduce locomotion or rearing at 10 minutes and 24 hours indicate deficits in short and long term memory, respectively."}, "[4]": {"test_system": "growth-associated protein-43 (GAP-43)", "assay": "PBBI in rats: GAP-43 immunohistochemistry in hippocampus", "assay_type": "in vivo, Sprague-Dawley rats", "details": "30 mg/kg oral once daily", "procedure": "The methods for producing PBBI in this Example is the same as described above for Example 26. Adult Sprague-Dawley rats were randomly assigned into three groups: sham (craniotomy only), PBBI+vehicle (i.e. H2O), and PBBI+cG-2-AllylP. cG-2-AllylP (or vehicle) was administered via oral gavage at 30 mg/kg at 30 min post-injury and continued once daily thereafter for 7, 14 or 28 days. At each treatment endpoint, rats were perfused and brains were processed for histological analysis (n=5-6/group/time-point). For detection of axonal sprouting, immunohistochemical detection of growth-associated protein-43 (GAP-43) was employed. Synaptogenesis was determined by immunohistochemistry for synaptophysin (SYN). For histological quantification, the integrated density in the hippocampal region was determined using NIH ImageJ software."}}, "data": [{"smiles": "C=CC[C@]12CCCN1C(=O)CNC2=O", "note": "[cG-2-AllylP, (8aS)-Allyl-hexahydropyrrolo[1,2-a]pyrazine-1,4-dione]", "values": [{"measurement": "bouts of sniffing", "setting": "[1]", "value": "about 21"}, {"measurement": "changes in the NMDA receptors", "setting": "[2]", "value": "not so pronounced"}, {"measurement": "exploratory behavior (number of squares entered)", "setting": "[3]; T1", "value": "significantly reduced the exploratory behavior of fmr1-knockout animals"}, {"measurement": "number of squares entered", "setting": "[3]; T1", "value": "about the same number of squares"}, {"measurement": "exploratory behavior (number of squares entered)", "setting": "[3]; T2 (10 minutes)", "value": "normalized the magnitude of their behavior to that of the wild-type animals"}, {"measurement": "number of squares entered", "setting": "[3]; T2 (10 minutes)", "value": "about 45 squares"}, {"measurement": "exploratory behavior (number of squares entered)", "setting": "[3]; T3 (24 hours)", "value": "normalized exploratory behavior at T3"}, {"measurement": "number of squares entered", "setting": "[3]; T3 (24 hours)", "value": "25-30 squares"}, {"measurement": "injury-induced reduction in GAP-43 expression", "setting": "[4]; 7d or 14d post-PBBI", "value": "no effect on injury-induced reductions"}, {"measurement": "PBBI-induced reduction in GAP-43 expression", "setting": "[4]; 28 days post-injury", "value": "attenuated PBBI-induced reductions"}]}]}
